Experiments:
[1] = molecular target: T1, acetolactate synthase (ALS), Isolate 7 (+/+) extract (Nicotiana tabacum, UniProt P09114); assay: ALS activity assay in cell extracts; assay type: biochemical; conditions: read-out: Uninhibited activity (%) in the Presence of Chlorsulfuron
T1 construct: ALS activity was then assayed in extracts prepared from these cell suspension cultures; endogenous in cells; host or cells: N. tabacum cv; Xanthi cell suspension cultures (H1 parental haploid line; +/+ segregants), 0-50% ammonium sulfate fraction of the extract
T1 sequence (P09114 92-664): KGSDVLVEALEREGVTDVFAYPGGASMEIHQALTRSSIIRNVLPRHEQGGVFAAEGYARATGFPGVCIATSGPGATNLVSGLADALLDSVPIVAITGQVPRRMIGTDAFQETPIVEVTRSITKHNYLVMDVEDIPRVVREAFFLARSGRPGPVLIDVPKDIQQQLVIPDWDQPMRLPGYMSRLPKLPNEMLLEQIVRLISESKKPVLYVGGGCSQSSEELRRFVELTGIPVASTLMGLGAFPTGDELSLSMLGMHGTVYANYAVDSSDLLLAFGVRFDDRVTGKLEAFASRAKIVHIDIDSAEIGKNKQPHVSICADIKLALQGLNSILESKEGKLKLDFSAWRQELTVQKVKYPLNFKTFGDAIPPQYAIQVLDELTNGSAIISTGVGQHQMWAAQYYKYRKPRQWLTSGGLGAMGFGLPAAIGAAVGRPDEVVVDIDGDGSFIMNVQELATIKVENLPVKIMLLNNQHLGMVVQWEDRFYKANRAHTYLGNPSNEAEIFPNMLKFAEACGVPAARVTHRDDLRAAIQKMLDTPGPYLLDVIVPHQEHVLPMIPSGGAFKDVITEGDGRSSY
Method: Cell suspension cultures of normal (H1) and homozygous mutant (Isolate 16) cell lines were washed in C1 liquid medium. After washing, cells were extracted in a 100 mM potassium phosphate buffer (pH 7.5) containing 0.5 mM MgCl2, 1 mM sodium pyruvate, 0.5 mM thiamine pyrophosphate, 10 micromolar flavine-adenine dinucleotide (FAD) and 10 percent (by volume) glycerol. Polyclar AT (BDH Chemicals Ltd) was added to a final concentration of 250 mg per gram fresh weight of tissue. After centrifugation at 27,000xg for 15 minutes at 4°, an equal volume of a saturated solution of amminium sulfate was added to the supernatant fraction. The resultant precipitate (representing a 0 to 50 percent ammonium sulfate fraction) was redissolved in 100 mM potassium phosphate buffer (pH 7.5) containing 0.5 mM MgCl2, 1 mM sodium pyruvate, and salts were removed by passage through a Sephadex G-25 (Pharmacia PD-10) column.
ALS activity was assayed in a total volume of 500 microliters containing 100 microliters of the column eluate, 65 mM potassium phosphate buffer (pH 7.5) containing 10 mM MgCl2, 40 mM sodium pyruvate, 250 micromolar thiamine pyrophosphate, 23 micromolar FAD, and 1, 5, 10, 50, 100, 500 or 1000 ppb chlorsulfuron or sulfometuron-methyl. […] Acetoin content was then measured by a modification of the procedure described by Westerfield, J. Biol. Chem. 161:495 (1945). […] Tubes were then centrifuged, and the optical density was read at 530 nm. Background optical densities, which were subtracted from the optical density values of the reactions, were determined for each extract from parallel assays to which the enzyme extract was added after the addition of 6N H2 SO4. Protein concentrations were measured with Bio-Rad Protein Assay reagent with bovine serum albumin as a standard. […]
Responses to chlorsulfuron were determined for ALS activities in extracts of cells suspension cultures derived from nine individuals that differed with resepct to the S4 mutation. […] Callus and plant phenotypes were determined by growth responses of cell cultures and seedlings, respectively, on herbicide-supplemented medium. […]

[2] = tested on: Isolate 23 (S4/+) cell line; assay: Callus growth test; assay type: cell-based, Nicotiana tabacum; conditions: 14 days
Method: (§1) Callus growth tests were conducted substantially according to the following procedure. Approximately 50 mg callus tissue, grown on non-selective media, was spread over 7 cm diameter paper filter discs (Whatman No. 1), which were placed on the medium surface of petri dishes containing C1 agar media and varying concentrations of chlorsulfuron. The resulting cultures were incubated for 14 days at 25±1°, under fluorescent lamps programmed to provide a 16-hour photoperiod per day. At the conclusion of the incubation period, tissue was scraped from each filter disc and weighed. The final fresh weights were recorded, and means and standard errors of the means determined for all cases. The significance of differences between responses of individual cell lines to various concentrations of chlorsulfuron was determined at a probability level of 5% by a t-test for populations having different standard deviations, as described by Snedecor, et al., Statistical Methods (Iowa State University Press, Ames, Iowa, (1967), pp. 114-116).
(§2) The isolates tested were established from plants produced by self-fertilization of a S4/+ heterozygote produced by two successive backcrosses of a regenerated mutant plant to normal plants. In addition, growth responses were determined for cell cultures initiated from two individuals of the same genotype with respect to the S4 mutation. The genotypes of these cell lines were confirmed by progeny analyses of the plants from which they were derived. These precautions were intended to eliminate background variability which might otherwise obscure the effects of the resistance mutation.

[3] = tested on: Isolate 1 (+/+) cell line; assay: Callus growth test; assay type: cell-based, Nicotiana tabacum
Method: as §1, §2

**Q.** How did the remaining ALS activity (% of uninhibited) at 0.01 ppm ([1]; 10 ppb) turn out when `COc1nc(C)nc(NC(=O)NS(=O)(=O)c2ccccc2Cl)n1` [Chlorsulfuron, chlorsulfuron] was run?
**A.** The remaining ALS activity (% of uninhibited) at 0.01 ppm was 36%.

**Q.** And the remaining ALS activity (% of uninhibited) at 0.03 ppm ([1]; 30 ppb)?
**A.** Its remaining ALS activity (% of uninhibited) at 0.03 ppm is 22%.

**Q.** And the remaining ALS activity (% of uninhibited) at 0.1 ppm ([1]; 100 ppb)?
**A.** Its remaining ALS activity (% of uninhibited) at 0.1 ppm is 16%.

**Q.** What about the activity at 0.0003 µg/mL ([2]; Nicotiana tabacum, 336 h, chlorsulfuron 0.3 ppb, read-out: % of fresh weight at 0 ppb) of the same molecule?
**A.** Its activity at 0.0003 µg/mL is 95.8%.

**Q.** And the activity at 0.001 µg/mL ([2]; Nicotiana tabacum, 336 h, chlorsulfuron 1.0 ppb, read-out: % of fresh weight at 0 ppb)?
**A.** The activity at 0.001 µg/mL was 93.8%.

**Q.** And the activity at 0.003 µg/mL ([2]; Nicotiana tabacum, 336 h, chlorsulfuron 3.0 ppb, read-out: % of fresh weight at 0 ppb)?
**A.** Its activity at 0.003 µg/mL is 89.9%.

**Q.** And the activity at 0.01 µg/mL ([2]; Nicotiana tabacum, 336 h, chlorsulfuron 10.0 ppb, read-out: % of fresh weight at 0 ppb)?
**A.** The activity at 0.01 µg/mL was 57.6%.

**Q.** And the activity at 0.03 µg/mL ([2]; Nicotiana tabacum, 336 h, chlorsulfuron 30.0 ppb, read-out: % of fresh weight at 0 ppb)?
**A.** The activity at 0.03 µg/mL was 28.1%.

**Q.** What about the “Fr. Wt.” value ([2]; chlorsulfuron 0.1 ppb) of the same molecule?
**A.** Its value is 2803 ± 153 mg.

**Q.** And the “Fr. Wt.” value ([2]; chlorsulfuron 0.3 ppb)?
**A.** Its value is 2559 ± 174 mg.

**Q.** And the “Fr. Wt.” value ([2]; chlorsulfuron 1.0 ppb)?
**A.** Its value is 2505 ± 134 mg.

**Q.** What about the “Fr. Wt.” value ([2]; chlorsulfuron 3.0 ppb) of the same molecule?
**A.** The value was 2401 ± 218 mg.

**Q.** What about the “Fr. Wt.” value ([2]; chlorsulfuron 10.0 ppb) of the same molecule?
**A.** The value was 1537 ± 90 mg.

**Q.** What about the “Fr. Wt.” value ([2]; chlorsulfuron 30.0 ppb) of the same molecule?
**A.** Its value is 749 ± 54 mg.

**Q.** What about the “significance of growth inhibition (t-test, 5%)” value ([3]; 0.1 ppb chlorsulfuron) of the same molecule?
**A.** The value was “significantly inhibited”.

**Q.** What about the activity at 0.0001 µg/mL ([3]; Nicotiana tabacum, 336 h, chlorsulfuron 0.1 ppb, 14 days, read-out: % of fresh weight at 0 ppb) of the same molecule?
**A.** The activity at 0.0001 µg/mL was 76.7%.

**Q.** What about the activity at 0.0003 µg/mL ([3]; Nicotiana tabacum, 336 h, chlorsulfuron 0.3 ppb, 14 days, read-out: % of fresh weight at 0 ppb) of the same molecule?
**A.** Its activity at 0.0003 µg/mL is 40.4%.

**Q.** What about the activity at 0.001 µg/mL ([3]; Nicotiana tabacum, 336 h, chlorsulfuron 1.0 ppb, 14 days, read-out: % of fresh weight at 0 ppb) of the same molecule?
**A.** Its activity at 0.001 µg/mL is 3.6%.

**Q.** And the activity at 0.003 µg/mL ([3]; Nicotiana tabacum, 336 h, chlorsulfuron 3.0 ppb, 14 days, read-out: % of fresh weight at 0 ppb)?
**A.** Its activity at 0.003 µg/mL is 1.8%.

**Q.** And the “Fr. Wt.” value ([3]; chlorsulfuron 0.1 ppb, 14 days)?
**A.** The value was 2287 ± 198 mg.

**Q.** And the “Fr. Wt.” value ([3]; chlorsulfuron 0.3 ppb, 14 days)?
**A.** Its value is 1204 ± 107 mg.

**Q.** What about the “Fr. Wt.” value ([3]; chlorsulfuron 1.0 ppb, 14 days) of the same molecule?
**A.** Its value is 106 ± 9 mg.

**Q.** And the “Fr. Wt.” value ([3]; chlorsulfuron 3.0 ppb, 14 days)?
**A.** Its value is 55 ± 3 mg.

Reference: patent publication US4774381A, “Herbicide resistant tobacco” (E. I. Du Pont de Nemours and Company, priority 1985, dated 1988)
